Source: patent US20090210952A1, “Compositions and Methods Related to Controlled Gene Expression Using Viral Vectors” (priority 2005, published 2009)

What was measured:
GFP expression = assay: DOX concentration required to induce GFP expression in infected cells (fluorescent microscopy); format: cell-based; conditions: within 48 hours; cells infected with viral particles from pHReGFPO2/EFtet/blas
Experimental: To determine the DOX concentration required to induce gene expression in the single vector system, different concentration of DOX were added to cells infected with viral particles derived from pHReGFPO2/EFtet/blas (titer 2.5×10^6/ml). GFP expression was monitored by fluorescent microscopy.

transgenic mice = assay: Induction of eGFP expression in transgenic mice by drinking water containing DOX; format: in vivo, mouse
Experimental: To determine whether the inducible constructs could induce eGFP expression in vivo, the transgenic mice were fed drinking water containing 100 μg/ml DOX. GFP expression in the body (paw) and PBMCs was analyzed by fluorescent microscopy and FACS analysis before and after the transgenic mice were fed DOX.
A previous study reported that a DOX concentration of 0.1-10 mg/ml in the drinking water of transgenic mice containing a tet regulatable system, was required for inducible gene expression within the animal. To determine the concentration of DOX required for inducible expression of GFP in the transgenic mice described above, the F1 mice from CAG-founder 6# were divided into the four groups which were fed drinking water containing different concentrations of DOX including 0 ug/ml (Group 1), 4 ug/ml (Group 2), 20 ug/ml (Group 3), and 100 ug/ml (Group 4). GFP expression was monitored by visualizing GFP expression in the fingers of the transgenic mouse under UV light after 0, 1, 2, 3, 5 and 18 days of feeding the mice DOX. The intensity of the fluorescent signal in the fingers of the tested mice over the course of the experiment was observed. […] The intensity of the fluorescent signal for Groups 3 and 4 expressed their highest level of GFP expression after 5 days of DOX feeding. In addition, 4 ug/ml of DOX fed to the mice of Group 2 mice was sufficient to induce GFP expression, however the induction was delayed and the intensity was relatively weak as compared to Group 3 and 4 mice. Also of note is that the intensity of a fluorescent signal appeared in a does-dependent manner.
Using the FACS, positive blood cells expressing GFP were isolated and quantified. […] For all mice of Groups 2, 3 and 4, both the number and intensity of GFP expressing cells increased after the mice were fed DOX.
To determine the pharmacokinetics of DOX, 43% of the blood cells expressed GFP from Group 4 mice (after 18 days of DOX feeding), this level was used to set the threshold of 100 percent induction.

[1] = system: transgenic mice containing a tet regulatable system; conditions: previous study; cited from earlier work

C[C@H]1c2cccc(O)c2C(O)=C2C(=O)[C@]3(O)C(O)=C(C(N)=O)C(=O)[C@@H](N(C)C)[C@@H]3[C@@H](O)[C@@H]21 [DOX, doxycycline]
DOX sufficient to induce GFP expression (GFP expression): 15 ng
time of DOX feeding until mice began to express GFP (transgenic mice; 20 ug/ml and 100 ug/ml DOX (Group 3 and Group 4)): 1 days
time of DOX feeding to highest level of GFP expression (transgenic mice; 20 ug/ml and 100 ug/ml DOX (Groups 3 and 4)): 5 days
DOX concentration in drinking water sufficient to induce GFP expression (transgenic mice; F1 mice from CAG-founder 6#, fingers under UV light, induction delayed, intensity relatively weak): 4 µg/mL
blood cells expressing GFP (transgenic mice; Group 4 (100 ug/ml DOX), after 18 days of DOX feeding, FACS): 43%
DOX concentration in the drinking water required for inducible gene expression [1]: 0.1 to 10 mg/mL
